According to patent US11504382B2, “Tricyclic inhibitors of Hepatitis B virus” (Antios Therapeutics, Inc., priority 2018, dated 2022):
Like-named read-outs stand apart in the source and are kept apart here.

System: HBV
Experiment: HBV inhibition assay in HepAD38 cells (extracellular HBV DNA by direct qPCR)
Assay type: cell-based, Hepatitis B virus
Settings: 96 hours; for EC50: 8-point dose-response curve, read-out: HBV inh EC50; for inhibition at 0.1 µM / Anti HBV Activity (conc μM): 0.1 μM
[1] = Hepatitis B virus, relative to non-treated reference, read-out: Anti HBV Activity (conc μM)
[2] = relative to non-treated reference

Cc1cc(NC(=O)c2c3c(cn2C)S(=O)(=O)NC2CN(C(=O)C45CC(CO4)C5)CCC2CO3)ccc1F (racemic) [Example E143, Trans-7-(2-oxabicyclo[2.1.1]hexane-1-carbonyl)-N-(4-fluoro-3-methylphenyl)-2-methyl-5,5a,6,7,8,9,9a,10-octahydro-2H-pyrido[3,4-f]pyrrolo[3,4-b][1,4,5]oxathiazocine-1-carboxamide 4,4-dioxide]
EC50: < 1 µM

Cc1cc(NC(=O)c2c3c(cn2C)S(=O)(=O)N[C@H]2CN(C(=O)C45CC(CO4)C5)C[C@H]2CO3)ccc1F [Example E109, (3aR,10aR)-2-(2-oxabicyclo[2.1.1]hexane-1-carbonyl)-N-(4-fluoro-3-methylphenyl)-7-methyl-2,3,3a,4,10,10a-hexahydro-1H,7H-dipyrrolo[3,4-b:3′,4′-f][1,4,5]oxathiazocine-8-carboxamide 5,5-dioxide]
EC50 (Hepatitis B virus): < 1 µM

Cn1cc2c(c1C(=O)Nc1ccc(F)c(F)c1)OC[C@H]1CCC[C@@H]1NS2(=O)=O [Example E9, (5aS,8aS)—N-(3,4-difluorophenyl)-2-methyl-5a,6,7,8,8a,9-hexahydro-2H,5H-cyclopenta[f]pyrrolo[3,4-b][1,4,5]oxathiazocine-1-carboxamide 4,4-dioxide]
EC50 (Hepatitis B virus): < 1 µM

Cc1cc(NC(=O)c2c3c(cn2C)S(=O)(=O)N[C@@H]2CN(C(=O)OC(C)(C)C)C[C@H]2CO3)ccc1F (single isomer, unassigned) [Example E151]
EC50 (Hepatitis B virus): < 1 µM

Cc1cc(NC(=O)c2c3c(cn2C)S(=O)(=O)NC2CN(C(=O)C45CC(CO4)C5)CC2(C)CO3)ccc1F (stereo not drawn) [Example E90, cis-2-(2-oxabicyclo[2.1.1]hexane-1-carbonyl)-N-(4-fluoro-3-methylphenyl)-7,10a-dimethyl-2,3,3a,4,10,10a-hexahydro-1H,7H-dipyrrolo[3,4-b:3′,4′-f][1,4,5]oxathiazocine-8-carboxamide 5,5-dioxide]
EC50 (Hepatitis B virus): < 1 µM

Cc1cc(NC(=O)c2c3c(cn2C)S(=O)(=O)NC2CCN(C(=O)C45CC(CO4)C5)CC2CO3)ccc1F (racemic) [Example E133, Trans-8-(2-oxabicyclo[2.1.1]hexane-1-carbonyl)-N-(4-fluoro-3-methylphenyl)-2-methyl-5,5a,6,7,8,9,9a,10-octahydro-2H-pyrido[4,3-f]pyrrolo[3,4-b][1,4,5]oxathiazocine-1-carboxamide 4,4-dioxide]
EC50: < 1 µM

Cn1cc2c(c1C(=O)Nc1cc(F)c(F)c(F)c1)OCC1CN(C(=O)c3cocn3)CC1NS2(=O)=O (stereo not drawn) [Example E65, cis-7-methyl-2-(oxazole-4-carbonyl)-N-(3,4,5-trifluorophenyl)-2,3,3a,4,10,10a-hexahydro-1H,7H-dipyrrolo[3,4-b:3′,4′-f][1,4,5]oxathiazocine-8-carboxamide 5,5-dioxide]
EC50 (Hepatitis B virus): < 1 µM

Cc1cc(NC(=O)c2c3c(cn2C)S(=O)(=O)NC2CN(C(=O)c4ccc(O)nc4)CC2CO3)ccc1F (stereo not drawn) [Example E53, cis-N-(4-fluoro-3-methylphenyl)-2-(6-hydroxynicotinoyl)-7-methyl-2,3,3a,4,10,10a-hexahydro-1H,7H-dipyrrolo[3,4-b:3′,4′-f][1,4,5]oxathiazocine-8-carboxamide 5,5-dioxide]
inhibition at 0.1 µM [1]: < 50%

Cn1cc2c(c1C(=O)Nc1ccc(F)c(F)c1)OC[C@H]1NCC[C@H]1NS2(=O)=O (single isomer, unassigned) [Example E25]
inhibition at 0.1 µM [1]: < 50%

ethyl 7-methyl-8-((3,4,5-trifluorophenyl)carbamoyl)-3a,4,10,10a-tetrahydro-1H,7H-dipyrrolo[3,4-b:3′,4′-f][1,4,5]oxathiazocine-2(3H)-carboxylate 5,5-dioxide (3aS,10aS) [Example E32]
Anti HBV Activity (conc μM) [2]: A (0.1) (HBV inhibition greater than 50% at the concentration indicated in the table)
EC50: < 1 µM

Cc1cc(NC(=O)c2c3c(cn2C)S(=O)(=O)NC2CN(C(=O)c4ncoc4C)CC2CO3)ccc1F (stereo not drawn) [Example E147, Trans-N-(4-fluoro-3-methylphenyl)-7-methyl-2-(5-methyloxazole-4-carbonyl)-2,3,3a,4,10,10a-hexahydro-1H,7H-dipyrrolo[3,4-b:3′,4′-f][1,4,5]oxathiazocine-8-carboxamide 5,5-dioxide]
EC50 (Hepatitis B virus): < 1 µM

Cc1cc(NC(=O)c2c3c(cn2C)S(=O)(=O)NC2CN(C(=O)C45CC(CO4)C5)CCC2CO3)ccc1F (racemic) [Example E138, Cis-7-(2-oxabicyclo[2.1.1]hexane-1-carbonyl)-N-(4-fluoro-3-methylphenyl)-2-methyl-5,5a,6,7,8,9,9a,10-octahydro-2H-pyrido[3,4-f]pyrrolo[3,4-b][1,4,5]oxathiazocine-1-carboxamide 4,4-dioxide]
EC50 (Hepatitis B virus): < 1 µM

Cc1nnc(C(=O)N2CCC3NS(=O)(=O)c4cn(C)c(C(=O)Nc5ccc(F)c(C)c5)c4OCC3C2)o1 (racemic) [Example E125, Cis-N-(4-fluoro-3-methylphenyl)-2-methyl-8-(5-methyl-1,3,4-oxadiazole-2-carbonyl)-5,5a,6,7,8,9,9a,10-octahydro-2H-pyrido[4,3-f]pyrrolo[3,4-b][1,4,5]oxathiazocine-1-carboxamide 4,4-dioxide]
EC50 (Hepatitis B virus): < 1 µM

Cc1nnc(C(=O)N2C[C@H]3COc4c(cn(C)c4C(=O)Nc4ccc(F)c(Cl)c4)S(=O)(=O)N[C@H]3C2)o1 [Example E99, (3aR,10aR)—N-(3-chloro-4-fluorophenyl)-7-methyl-2-(5-methyl-1,3,4-oxadiazole-2-carbonyl)-2,3,3a,4,10,10a-hexahydro-1H,7H-dipyrrolo[3,4-b:3′,4′-f][1,4,5]oxathiazocine-8-carboxamide 5,5-dioxide]
EC50 (Hepatitis B virus): < 1 µM

Cn1cc2c(c1C(=O)Nc1ccc(F)c(F)c1)OCC1CCCC1NS2(=O)=O (single isomer, unassigned) [Example E34, N-(3,4-difluorophenyl)-2-methyl-5a,6,7,8,8a,9-hexahydro-2H,5H-cyclopenta[f]pyrrolo[3,4-b][1,4,5]oxathiazocine-1-carboxamide 4,4-dioxide (Chiral 5aS,8aR or 5aR,8aS - Stereochemistry unknown)]
Anti HBV Activity (conc μM) [2]: B (0.1) (HBV inhibition less than 50% at the concentration indicated in the table)

Cn1cc2c(c1C(=O)Nc1ccc(F)c(F)c1)OC1COCC1NS2(=O)=O (racemic) [Example E4, trans-N-(3,4-difluorophenyl)-7-methyl-1,3a,4,9a-tetrahydro-3H,7H-furo[3,4-f]pyrrolo[3,4-b][1,4,5]oxathiazepine-8-carboxamide 5,5-dioxide]
inhibition at 1 µM (Hepatitis B virus, 1 μM, relative to non-treated reference, read-out: Anti HBV Activity (conc μM)): > 50%
EC50 (Hepatitis B virus): < 1 µM

Cc1cc(C(=O)N2CC3COc4c(cn(C)c4C(=O)Nc4ccc(F)c(C)c4)S(=O)(=O)NC3C2)no1 (stereo not drawn) [Example E52, cis-N-(4-fluoro-3-methylphenyl)-7-methyl-2-(5-methylisoxazole-3-carbonyl)-2,3,3a,4,10,10a-hexahydro-1H,7H-dipyrrolo[3,4-b:3′,4′-f][1,4,5]oxathiazocine-8-carboxamide 5,5-dioxide]
inhibition at 0.05 µM [1]: > 50%
EC50 (Hepatitis B virus): < 1 µM

Cn1cc2c(c1C(=O)Nc1cc(F)c(F)c(F)c1)OCC1CN(S(C)(=O)=O)CC1NS2(=O)=O (racemic) [Example E19, cis-7-methyl-2-(methylsulfonyl)-N-(3,4,5-trifluorophenyl)-2,3,3a,4,10,10a-hexahydro-1H,7H-dipyrrolo[3,4-b:3′,4′-f][1,4,5]oxathiazocine-8-carboxamide 5,5-dioxide]
inhibition at 0.1 µM [1]: > 50%
EC50 (Hepatitis B virus): < 1 µM

Cn1cc2c(c1C(=O)Nc1cc(F)c(F)c(F)c1)OCC1CN(CC#N)CC1NS2(=O)=O (stereo not drawn) [Example E74, cis-2-(cyanomethyl)-7-methyl-N-(3,4,5-trifluorophenyl)-2,3,3a,4,10,10a-hexahydro-1H,7H-dipyrrolo[3,4-b:3′,4′-f][1,4,5]oxathiazocine-8-carboxamide 5,5-dioxide]
inhibition at 0.05 µM [1]: > 50%
EC50 (Hepatitis B virus): < 1 µM

Cn1cc2c(c1C(=O)Nc1ccc(F)c(F)c1)OCC1(C)CCCC1NS2(=O)=O (stereo not drawn) [Example E29, N-(3,4-difluorophenyl)-2,8a-dimethyl-5a,6,7,8,8a,9-hexahydro-2H,5H-cyclopenta[f]pyrrolo[3,4-b][1,4,5]oxathiazocine-1-carboxamide 4,4-dioxide]
inhibition at 0.1 µM [1]: < 50%

Cc1nnc(C(=O)N2C[C@H]3COc4c(cn(C)c4C(=O)Nc4ccc(F)c(C)c4)S(=O)(=O)N[C@H]3C2)o1 [Example E98, (3aR,10aR)—N-(4-fluoro-3-methylphenyl)-7-methyl-2-(5-methyl-1,3,4-oxadiazole-2-carbonyl)-2,3,3a,4,10,10a-hexahydro-1H,7H-dipyrrolo[3,4-b:3′,4′-f][1,4,5]oxathiazocine-8-carboxamide 5,5-dioxide]
EC50 (Hepatitis B virus): < 1 µM

Cc1nnc(C(=O)N2CCC3NS(=O)(=O)c4cn(C)c(C(=O)Nc5ccc(F)c(C)c5)c4OCC3C2)o1 (racemic) [Example E130, Trans-N-(4-fluoro-3-methylphenyl)-2-methyl-8-(5-methyl-1,3,4-oxadiazole-2-carbonyl)-5,5a,6,7,8,9,9a,10-octahydro-2H-pyrido[4,3-f]pyrrolo[3,4-b][1,4,5]oxathiazocine-1-carboxamide 4,4-dioxide]
EC50: < 1 µM

CCOC(=O)N1CC2COc3c(cn(C)c3C(=O)Nc3ccc(F)c(Cl)c3)S(=O)(=O)NC2C1 (racemic) [Example E15, Cis-Ethyl 8-((3-chloro-4-fluorophenyl)carbamoyl)-7-methyl-3a,4,10,10a-tetrahydro-1H,7H-dipyrrolo[3,4-b:3′,4′-f][1,4,5]oxathiazocine-2(3H)-carboxylate 5,5-dioxide]
inhibition at 0.1 µM [1]: > 50%
EC50 (Hepatitis B virus): < 1 µM

tert-butyl 7-methyl-8-((3,4,5-trifluorophenyl)carbamoyl)-3a,4,10,10a-tetrahydro-1H,7H-dipyrrolo[3,4-b:3′,4′-f][1,4,5]oxathiazocine-2(3H)-carboxylate 5,5-dioxide (3aR,10aR) [Example E33]
Anti HBV Activity (conc μM) [2]: B (0.1) (HBV inhibition less than 50% at the concentration indicated in the table)
